This is an account of results in ChEMBL document CHEMBL1165948, “The scope of thallium nitrate oxidative cyclization of chalcones; synthesis and evaluation of isoflavone and aurone analogs for their inhibitory activity against interleukin-5” (Bioorg Med Chem, 2010).

In this assay the target is T1, Interleukin-5 (Mus musculus) (UniProt P04401).
T1 sequence (whole entry): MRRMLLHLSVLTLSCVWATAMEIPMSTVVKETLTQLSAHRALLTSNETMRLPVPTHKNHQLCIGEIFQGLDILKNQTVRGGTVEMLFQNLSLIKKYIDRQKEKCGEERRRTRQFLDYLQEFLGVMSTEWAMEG
In words: Inhibition of IL5-mediated proliferation of mouse Y16 cells at 50 uM by WST1 assay. Format: cell-based. (Formazan colour is commonly taken as a measure of viable cells.)

A value given as a limit tells only on which side of the number the result lay.

Regarding `O=Cc1ccc(/C=C2\Oc3cccc(OCC4CCCCC4)c3C2=O)cc1`, the inhibition (usually the change of the read-out against control, counted positive when it falls) was 8%.

On to `O=c1c(-c2ccc(O[C@@H]3O[C@H](CO)[C@@H](O)[C@H](O)[C@H]3O)cc2)coc2cc(O)cc(O)c12`, for which the inhibition amounted to 92.1%.

As for `COC(=O)c1ccc(/C=C2\Oc3cccc(OCC4CCCCC4)c3C2=O)cc1`, the inhibition came to 3.5%.

With `CCc1ccc(/C=C2\Oc3cccc(OCC4CCCCC4)c3C2=O)cc1`, the inhibition came out at 3.8%.

The molecule `CCc1ccc(-c2coc3cccc(OCC4CCCCC4)c3c2=O)cc1` gave an inhibition of 9.7%.

Regarding `COCOc1ccc(-c2coc3cccc(OCC4CCCCC4)c3c2=O)cc1`, the inhibition stood at 10.5%.

`O=c1c(-c2ccc(O)cc2)coc2cccc(OCC3CCCCC3)c12` showed an inhibition of 91.7%.

For `O=C1/C(=C/c2ccccc2)Oc2cccc(OCC3CCCCC3)c21`, the inhibition amounted to 3.1%.

`COc1cc(-c2coc3cccc(OCC4CCCCC4)c3c2=O)ccc1OCc1ccccc1` came in with an inhibition of 99.8%.

Take `COc1cc(-c2coc3cccc(OCC4CCCCC4)c3c2=O)ccc1O`: the inhibition is 15.7%.

In turn, `O=C1/C(=C/c2ccc(Cl)cc2)Oc2cccc(OCC3CCCCC3)c21` registered an inhibition of 12.2%.

`COc1ccc(-c2coc3cccc(OCC4CCCCC4)c3c2=O)c(OC)c1` had an inhibition of 15.6%.

In the case of `O=C1/C(=C/c2ccc([N+](=O)[O-])cc2)Oc2cccc(OCC3CCCCC3)c21`, the inhibition was 5.7%.

With `COc1cc(-c2coc3cccc(OCC4CCCCC4)c3c2=O)cc(OC)c1OC`, the inhibition is above 100%.

The molecule `COc1ccc(-c2coc3cccc(OCC4CCCCC4)c3c2=O)cc1OC` displayed an inhibition of 30.6%.

`COc1ccc(-c2coc3cccc(OCC4CCCCC4)c3c2=O)cc1` gave an inhibition of 15.4%.
